Assay results: PubChem BioAssay (NCI)
Where “and” joins values, the source holds several entries; their conditions need not be identical. Identical values can stand only once.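 Five compound concentrations were applied to cells in 96-well plates for 48 hours; endpoints were derived by simple linear interpolation of the resulting dose-response curve. GI50 = concentration required for 50% inhibition of growth. TGI denotes the concentration required for complete inhibition of growth.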 Starred links: 1 amine or outer side, 2 acyl side, 3 side chain; linkers in the order of their positions; H or OH if unused. Positions of bridges follow the written chain, without caps; N, C: chain ends. Non-standard residues stand in square brackets, D forms with d. Residues, ends and D or L forms follow the SMILES beside them. Chains are numbered I, II in the order given. Actinocin(1to9) = Cc1c2oc3c(C)ccc(C(=O)[*:2])c3nc-2c(C(=O)[*:1])c(N)c1=O; NMeV = CN[CH](C(=O)O)C(C)C; Sar = CNCC(=O)O

Experiments:
Assay in all cases: DTP human tumour cell line panel, 48 h
[1] = test system: 786-0 renal
[2] = test system: A549 NSCLC
[3] = test system: HOP-62 NSCLC
[4] = test system: HOP-92 NSCLC
[5] = test system: K-562 leukemia
[6] = test system: KM12 colon
[7] = test system: MALME-3M melanoma
[8] = test system: MDA-MB-435
[9] = test system: MDA-N
[10] = test system: NCI-H23 lung
[11] = test system: OVCAR-4 ovarian
[12] = test system: OVCAR-5 ovarian
[13] = test system: OVCAR-8 ovarian
[14] = test system: PC-3 prostate
[15] = test system: SW-620 colon
[16] = test system: NCI-H522 lung
[17] = test system: SNB-75 CNS

Compound	TGI [1] [µM]	TGI [2] [µM]	TGI [3] [µM]	TGI [4] [µM]	TGI [5]	TGI [6] [µM]	TGI [7] [µM]	TGI [8] [µM]	TGI [9] [µM]	TGI [10] [µM]	TGI [11]	TGI [12]	TGI [13]	TGI [14]	TGI [15] [µM]	TGI [16]	TGI [17] [µM]	GI50 [11] [µM]	GI50 [12] [µM]
Clc1ccccc1/C=c1\nc(-c2ccccc2)n2c1nc1ccccc12	> 100	> 100	50.3	> 100	> 100 µM	> 100	> 100	> 100	> 100	47.8	> 100 µM	> 100 µM	> 100 µM	27.9 µM	> 100				
CCc1n[nH]c(=O)n1/N=C/c1ccccc1O	> 100	> 100	> 100	> 100	> 100 µM	> 100		> 100	> 100	> 100	> 100 µM	> 100 µM	> 100 µM	> 100 µM	> 100	> 100 µM	> 100		
N#CC(C(=O)c1cccnc1Cl)c1nc2cc(C(F)(F)F)ccc2s1 (stereo not given)	> 100	> 100	> 100	54.4	> 100 µM	> 100	> 100	> 100		> 100	> 100 µM	> 100 µM	> 100 µM		> 100	61.4 µM	> 100		
C[C@@H](c1ccccc1)n1c(N)c(-c2ccccn2)c2ccc([N+](=O)[O-])cc2c1=O	> 100	> 100		> 100		> 100		> 100	> 100	> 100	> 100 µM		> 100 µM	> 100 µM	> 100	> 100 µM	63		
O=C1NC(N2CCOCC2)=N/C1=C\c1ccc(Cl)cc1	> 100	> 100	> 100	> 100		> 100	> 100	> 100	> 100	> 100	> 100 µM	> 100 µM	> 100 µM	> 100 µM	> 100	> 100 µM	> 100		
O=c1oc2ccccc2nc1/C=C(\O)c1ccc(Cl)cc1	> 100	> 100	> 100		> 100 µM	> 100	> 100	> 100	> 100	> 100	> 100 µM	> 100 µM	> 100 µM	> 100 µM		> 100 µM	> 100		
O=c1c2cc(I)ccc2nc(SCc2nncs2)n1Cc1ccccc1	> 100	> 100	> 100	35.1	> 100 µM	> 100		> 100	> 100	> 100	> 100 µM	> 100 µM	> 100 µM	> 100 µM	> 100	61 µM	74.9		
COc1ccc(N=Nc2c(C)c(C#N)c(=S)n(C3OC(CO)C(O)C(O)C3O)c2-c2ccccc2)cc1 (stereo not given)	> 100	> 100	98.2		> 100 µM	> 100	63.1	73.9	> 100	98	> 100 µM	81.6 µM		66.3 µM	> 100		49.1		
COc1ccccc1NC(=S)N/N=C/c1c(C)n(C)n(-c2ccccc2)c1=O	> 100		> 100	> 100	> 100 µM	> 100		> 100		> 100	> 100 µM		> 100 µM	> 100 µM	> 100		> 100		
CC1(C)O[C@@H]([C@H](O)CO)[C@H](O)[C@@H](C2SCCCS2)O1	> 100	> 100	> 100	> 100		> 100		> 100		> 100	> 100 µM	> 100 µM	> 100 µM	> 100 µM	> 100		> 100		
CC(=O)C(=[N+]=[N-])C(=O)N1CCOC1=O	> 10	> 10	> 10		> 10 µM	> 10	> 10	> 10	> 10	> 10	> 10 µM	> 10 µM	> 10 µM	> 10 µM	> 10		> 10		
CCOC(=O)c1c[nH]c2c(Sc3ccccc3)nccc2c1=O	> 100	> 100	> 100	> 100		> 100		> 100	> 100	> 100	> 100 µM	> 100 µM	> 100 µM	> 100 µM	> 100	74 µM	> 100		
Cc1cc2c(c(C=Nc3ccccc3O)c1)OC1(C=C2)Oc2ccccc2C(=O)N1C (stereo not given)	37.5	70.8	66.3	32.2	62.2 µM	41.3		82	77.3	34.6	60 µM	30 µM	43.6 µM	48.7 µM	86.7		52.3		
OC(c1ccc(F)cc1)C(F)(F)c1nc2ccccc2o1 (stereo not given)	> 100		> 100	> 100	82.3 µM	> 100		> 100		> 100	> 100 µM		> 100 µM	> 100 µM	> 100		> 100		
O=[N+]([O-])c1cccc2nc3ccccc3c(NCCCn3ccnc3[N+](=O)[O-])c12	0.0137		0.143				0.00107	0.000231	0.000244	0.023	0.0735 µM and 0.171 µM		0.0126 µM and 0.0167 µM	0.0236 µM	0.103	0.0167 µM and 0.0252 µM	0.0775	0.0203	0.0109
CC(C)=CCC[C@]1(C)C=Cc2c(O)c3c(c(CC=C(C)C)c2O1)O[C@]12C(=C[C@@H]4CC1C(C)(C)O[C@@]2(C/C=C(/C)C(=O)O)C4=O)C3=O	2.4	3.71	3.11	9.16		2.25	3.76	3.72	4.59	3.24	13.6 µM	2.94 µM	4.19 µM	2.23 µM	2.89	2.32 µM	3.28		
CC(=O)O[C@H]1C(=O)[C@@]2(C)[C@H]([C@H](OC(=O)c3cccc([N+](=O)[O-])c3)[C@]3(O)C[C@H](OC(=O)[C@H](O)[C@@H](NC(=O)c4ccccc4)c4ccccc4)C(C)=C1C3(C)C)[C@]1(OC(C)=O)CO[C@@H]1C[C@@H]2O	> 25	> 25	> 25	> 25		> 25		0.0114	0.0115		> 25 µM	16.4 µM	> 25 µM	> 25 µM	> 25	0.0161 µM	0.295		
CCOC(=O)C(/C(=N/S(=O)(=O)c1cc(C)c(Cl)cc1[S-])[n+]1ccc(N(C)C)cc1)=C(/O)c1ccc([N+](=O)[O-])cc1	> 100	> 100	78.7	23.9	> 100 µM	82.7	40.5	> 100	> 100		88.6 µM	> 100 µM	> 100 µM	68.6 µM		34.6 µM			
Cc1ccc(NC(Nc2ccc(C)cc2C)=C(C(Cl)=C(Cl)Cl)[N+](=O)[O-])c(C)c1	30.1	28.4	34.2	31.7	24.6 µM	29.2	31.8	17.2		20	33.2 µM		33.9 µM	25 µM	33.1	28 µM	22.1		
CCc1ccccc1N=NC(=O)NNc1ccccc1CC	31.6	31.9	29.4		68.5 µM		32.7	49	33.2	39.8	69.8 µM	29.4 µM	32.8 µM	37.5 µM	37.5	41.3 µM	45.7		
Nc1c(C(=O)O)nnc2cc(Cl)c(Cl)cc12	> 100	> 100	> 100		> 100 µM	> 100	> 100	> 100	> 100	> 100	> 100 µM	> 100 µM	> 100 µM	> 100 µM	> 100	> 100 µM	> 100		
CC(=O)C1=C(C)N2C(=NC3=C(CCc4ccccc43)C2c2ccc(F)cc2)S1 (stereo not given)	> 100	> 100	> 100	> 100	90.4 µM	> 100		> 100	> 100	> 100	> 100 µM	> 100 µM	> 100 µM	> 100 µM	> 100		> 100		
CCC(C)C1NC(=O)C(NC(=O)c2c3nc4c(C(=O)NC5C(=O)NC(C(C)CC)C(=O)N6CCCC6C(=O)N(C)CC(=O)N(C)C(C(C)C)C(=O)OC5C)ccc(C)c4oc-3c(C)c(=O)c2N)C(C)OC(=O)C(C(C)C)N(C)C(=O)CN(C)C(=O)C2CCCN2C1=O (stereo not given) (I: TIP[Sar][NMeV] / II: TIP[Sar][NMeV]; ester I:1-I:C, II:1-II:C; linker I:N-II:N via Actinocin(1to9); configuration not given here)	10.4	10.9		0.085	0.0109 µM and 0.0132 µM	0.194	0.0202	0.0169		0.0168	0.273 µM	0.0273 µM and 0.0172 µM	0.125 µM	0.13 µM and 0.212 µM	0.0776	0.00176 µM	0.0329		
c1ccc(-c2nnn3c2NC2=C(CCCC2)C3c2ccccc2)cc1 (stereo not given)	36.4	32.8	39.2		29.2 µM	31.2		20.8	32.3	69.4		36.9 µM	5.44 µM	34.3 µM	28.9	19.9 µM			
O=C(CC(=O)N1N=C(N2CCCCC2)CC1c1ccccc1)Nc1ccccc1 (stereo not given)	> 100	> 100	> 100	> 100		> 100	> 100	> 100	> 100	> 100	> 100 µM	> 100 µM	> 100 µM	> 100 µM	> 100	> 100 µM	> 100		
COc1ccc(C2N(c3ccc(F)cc3)C(=O)N3C(c4ccc(OC)cc4)N(c4ccc(F)cc4)C(=O)N23)cc1 (stereo not given)	> 100	> 100	> 100	> 100		> 100	> 100	> 100	> 100	> 100	> 100 µM	> 100 µM	> 100 µM	> 100 µM	> 100	> 100 µM	> 100		
CC1=CC(=O)CC(C)(C)C1/C=C/C(C)=C/C=C/C(C)=C/C=C/C=C(C)/C=C/C=C(C)/C=C/C1C(C)=CC(=O)CC1(C)C (stereo not given)	> 100		> 100	62.8	> 100 µM	> 100		71.4	> 100	> 100	> 100 µM	> 100 µM	49 µM	> 100 µM	> 100	52.1 µM			
